Read-outs that look alike come from different tables or passages of the source.
Columns and labels:
human P450 1A2 [1] = biological target: T1, human P450 1A2 (Homo sapiens, UniProt P05177); test: Metabolism (hydroxylation) of substrates using transformed yeast cells or their microsomal fractions expressing human P450 1A2 and yeast NADPH-P450 reductase; settings: microsomes
T1 sequence (P05177 1-516): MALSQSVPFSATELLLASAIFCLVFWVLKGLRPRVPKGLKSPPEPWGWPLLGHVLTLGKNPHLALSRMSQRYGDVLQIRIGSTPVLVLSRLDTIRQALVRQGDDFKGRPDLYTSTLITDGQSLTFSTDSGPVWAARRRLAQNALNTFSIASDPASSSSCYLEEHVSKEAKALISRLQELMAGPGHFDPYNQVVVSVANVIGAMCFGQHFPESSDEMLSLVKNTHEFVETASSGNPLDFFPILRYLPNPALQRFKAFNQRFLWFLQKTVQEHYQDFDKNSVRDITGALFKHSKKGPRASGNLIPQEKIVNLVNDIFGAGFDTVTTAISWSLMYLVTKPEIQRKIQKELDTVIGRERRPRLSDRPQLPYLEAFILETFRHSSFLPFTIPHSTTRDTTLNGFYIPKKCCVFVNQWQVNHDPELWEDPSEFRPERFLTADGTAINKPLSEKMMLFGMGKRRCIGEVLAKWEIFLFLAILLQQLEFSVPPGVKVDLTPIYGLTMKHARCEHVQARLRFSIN
Description: (§1) Then 2 ml of dichloromethane was added.

human P450 2C9 = human P450 2C9 (Homo sapiens, UniProt P11712); test: Metabolism (hydroxylation) of substrates using transformed yeast cells or microsomal fractions expressing human P450 2C9; settings: microsomes
Sequence of human P450 2C9 (P11712 whole entry): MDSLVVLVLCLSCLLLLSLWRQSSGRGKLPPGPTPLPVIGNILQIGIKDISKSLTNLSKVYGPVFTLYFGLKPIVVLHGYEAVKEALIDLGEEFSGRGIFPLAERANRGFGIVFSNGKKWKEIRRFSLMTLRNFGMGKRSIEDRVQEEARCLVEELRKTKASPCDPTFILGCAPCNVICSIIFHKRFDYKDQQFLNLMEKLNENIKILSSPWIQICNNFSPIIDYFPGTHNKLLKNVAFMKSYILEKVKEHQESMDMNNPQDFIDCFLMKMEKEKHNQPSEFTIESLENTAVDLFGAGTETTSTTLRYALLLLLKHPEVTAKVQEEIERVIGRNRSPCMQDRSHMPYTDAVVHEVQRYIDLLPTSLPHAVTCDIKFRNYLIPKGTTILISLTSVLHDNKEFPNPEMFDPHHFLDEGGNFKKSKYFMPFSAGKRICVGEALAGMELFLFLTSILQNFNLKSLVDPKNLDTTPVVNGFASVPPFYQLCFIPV
Description: as §1

human P450 2E1 [2] = biological target: T2, human P450 2E1 (Homo sapiens, UniProt P05181); test: Metabolism (hydroxylation) of substrates using transformed yeast cells or microsomal fractions expressing human P450 2E1; settings: microsomes
T2 sequence (P05181 whole entry): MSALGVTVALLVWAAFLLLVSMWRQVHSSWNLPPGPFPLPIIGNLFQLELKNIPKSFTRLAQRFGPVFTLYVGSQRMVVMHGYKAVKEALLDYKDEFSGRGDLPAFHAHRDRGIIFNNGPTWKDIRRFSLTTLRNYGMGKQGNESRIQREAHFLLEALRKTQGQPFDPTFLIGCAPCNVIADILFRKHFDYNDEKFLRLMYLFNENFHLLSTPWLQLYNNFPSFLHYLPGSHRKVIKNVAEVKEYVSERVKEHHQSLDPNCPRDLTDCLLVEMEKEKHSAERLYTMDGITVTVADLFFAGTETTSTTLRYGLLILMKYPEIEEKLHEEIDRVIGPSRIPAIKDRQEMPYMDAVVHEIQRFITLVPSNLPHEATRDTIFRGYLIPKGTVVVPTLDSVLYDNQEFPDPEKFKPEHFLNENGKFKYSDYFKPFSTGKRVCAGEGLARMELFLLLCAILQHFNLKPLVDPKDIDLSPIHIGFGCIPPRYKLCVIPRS
Description: as §1

human P450 3A4 = test: Metabolism (hydroxylation) of substrates using transformed yeast cells or microsomal fractions expressing human P450 3A4; settings: microsomes
Description: as §1

human P450 2A6 = test: Metabolism (hydroxylation) of substrates using transformed yeast cells or microsomal fractions expressing human P450 2A6; settings: microsomes
Description: as §1

human P450 2B6 = biological target: T3, human P450 2B6 (Homo sapiens, UniProt P20813); test: Metabolism (hydroxylation) of substrates using transformed yeast cells or microsomal fractions expressing human P450 2B6; settings: microsomes
T3 sequence (P20813 1-491): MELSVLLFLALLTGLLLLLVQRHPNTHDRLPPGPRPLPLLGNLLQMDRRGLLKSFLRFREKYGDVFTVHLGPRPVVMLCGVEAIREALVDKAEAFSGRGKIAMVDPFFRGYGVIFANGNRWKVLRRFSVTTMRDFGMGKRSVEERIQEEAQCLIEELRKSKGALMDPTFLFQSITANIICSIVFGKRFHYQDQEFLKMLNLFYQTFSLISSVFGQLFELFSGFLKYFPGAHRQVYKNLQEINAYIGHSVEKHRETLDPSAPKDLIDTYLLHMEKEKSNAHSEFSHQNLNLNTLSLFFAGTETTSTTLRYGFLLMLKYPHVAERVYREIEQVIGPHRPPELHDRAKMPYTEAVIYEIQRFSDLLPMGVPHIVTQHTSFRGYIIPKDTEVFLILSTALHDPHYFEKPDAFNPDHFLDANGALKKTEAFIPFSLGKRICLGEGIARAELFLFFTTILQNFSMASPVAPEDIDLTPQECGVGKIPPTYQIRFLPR
Description: as §1

human P450 2C8 = test: Metabolism (hydroxylation) of substrates using transformed yeast cells or microsomal fractions expressing human P450 2C8; settings: microsomes
Description: as §1

human P450 2C18 = biological target: T4, human P450 2C18 (Homo sapiens, UniProt P33260); test: Metabolism (hydroxylation) of substrates using transformed yeast cells or microsomal fractions expressing human P450 2C18; settings: microsomes
T4 sequence (P33260 26-490): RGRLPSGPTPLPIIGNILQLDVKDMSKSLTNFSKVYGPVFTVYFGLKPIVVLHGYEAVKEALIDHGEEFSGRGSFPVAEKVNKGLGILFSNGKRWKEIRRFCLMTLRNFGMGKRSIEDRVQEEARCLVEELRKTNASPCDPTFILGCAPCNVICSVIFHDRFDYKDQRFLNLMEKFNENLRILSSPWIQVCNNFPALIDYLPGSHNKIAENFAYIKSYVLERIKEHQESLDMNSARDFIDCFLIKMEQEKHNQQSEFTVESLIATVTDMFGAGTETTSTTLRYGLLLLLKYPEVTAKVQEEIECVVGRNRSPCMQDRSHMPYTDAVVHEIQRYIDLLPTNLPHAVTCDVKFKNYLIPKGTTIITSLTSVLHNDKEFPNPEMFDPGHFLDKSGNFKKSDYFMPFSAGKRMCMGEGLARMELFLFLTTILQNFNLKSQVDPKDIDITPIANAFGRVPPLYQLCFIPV
Description: as §1

human P450 2C19 = human P450 2C19 (Homo sapiens, UniProt P33261); test: Metabolism (hydroxylation) of substrates using transformed yeast cells or microsomal fractions expressing human P450 2C19; settings: microsomes
Sequence of human P450 2C19 (P33261 whole entry): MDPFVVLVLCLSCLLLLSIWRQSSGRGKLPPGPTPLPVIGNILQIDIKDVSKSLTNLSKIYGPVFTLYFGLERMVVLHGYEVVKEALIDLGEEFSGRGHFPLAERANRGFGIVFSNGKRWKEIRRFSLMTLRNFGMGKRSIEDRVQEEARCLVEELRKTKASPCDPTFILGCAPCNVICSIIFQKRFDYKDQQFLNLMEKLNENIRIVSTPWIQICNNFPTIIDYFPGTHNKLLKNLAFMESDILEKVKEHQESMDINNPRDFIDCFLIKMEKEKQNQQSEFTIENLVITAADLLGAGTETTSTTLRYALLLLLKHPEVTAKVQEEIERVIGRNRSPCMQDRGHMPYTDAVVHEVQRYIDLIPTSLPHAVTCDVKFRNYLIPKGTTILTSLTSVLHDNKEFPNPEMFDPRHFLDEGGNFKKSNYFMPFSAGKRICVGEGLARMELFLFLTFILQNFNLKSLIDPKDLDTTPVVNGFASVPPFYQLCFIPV
Description: as §1

human P450 2D6 = test: Metabolism (hydroxylation) of substrates using transformed yeast cells or microsomal fractions expressing human P450 2D6; settings: microsomes
Description: as §1

human P450 1A1 = biological target: T5, human P450 1A1 (Homo sapiens, UniProt P04798); settings: microsomes
T5 sequence (P04798 1-512): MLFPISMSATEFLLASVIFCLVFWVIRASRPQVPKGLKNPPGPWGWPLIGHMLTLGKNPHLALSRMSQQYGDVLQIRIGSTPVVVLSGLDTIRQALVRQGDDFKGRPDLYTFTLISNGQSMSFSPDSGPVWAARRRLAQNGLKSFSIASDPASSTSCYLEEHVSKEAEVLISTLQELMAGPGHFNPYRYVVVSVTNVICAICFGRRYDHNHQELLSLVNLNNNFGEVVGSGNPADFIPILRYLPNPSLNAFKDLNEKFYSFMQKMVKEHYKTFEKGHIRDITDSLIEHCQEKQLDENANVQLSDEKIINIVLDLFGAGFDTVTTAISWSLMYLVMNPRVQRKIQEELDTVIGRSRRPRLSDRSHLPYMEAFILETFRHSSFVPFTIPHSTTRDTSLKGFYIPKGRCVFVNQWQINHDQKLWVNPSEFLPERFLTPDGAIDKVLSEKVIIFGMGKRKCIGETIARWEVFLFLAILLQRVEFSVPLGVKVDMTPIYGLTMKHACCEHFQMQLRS
Description: (§5) To the supernatant, 2 ml of dichloromethane was added. After sufficient stirring, the dichloromethane layer was recovered by centrifugation (5000×g, 10 min), and the solvent was evaporated under reduced pressure. The resultant residue was dissolved in 100 μl of acetonitrile, and the solution was analyzed by HPLC under the following conditions.
(§6) Then 2 ml of dichloromethane was added. After sufficient stirring, the solution was centrifuged again (5000×g, 10 min). The dichloromethane layer was recovered from the separated layer and the solvent was evaporated under reduced pressure. The resultant residue was dissolved in 100 μl of acetonitrile, and the solution was analyzed by HPLC under the following conditions.
Then 2 ml of dichloromethane was added to the supernatant and vigorously stirred and centrifuged (5000×g, 10 min). The dichloromethane layer was recovered from the separated layer, then evaporated under reduced pressure. The obtained residue was dissolved in 100 μl of acetonitrile, and the solution was analyzed by HPLC under the following conditions.
Then 2 ml of dichloromethane was added to the solution, and the solution was stirred vigorously and centrifuged (15,000×g, 5 min). The dichloromethane layer was recovered, and the solvent was removed under reduced pressure. The obtained residue was dissolved in 100 μl of acetonitrile and the solution was subjected to analysis by HPLC under the same conditions as above.
Then the solution was centrifuged (5000×g, 10 min) to give a supernatant. The obtained supernatant solution was subjected to the HPLC analysis under the following conditions.
(§7) Then the solution was centrifuged (5000×g, 10 min) to give a supernatant. 62.5 μl of 15% trichloroacetic acid and 2 ml of chloroform were added to the obtained supernatant solution, and the resultant solution was stirred well. The chloroform layer was recovered from the separated layer. Then 4 ml of sodium hydroxide solution containing 0.1 M NaCl was added to the solution and centrifuged again (5000×g, 10 min).
Then perchlorate was added to the solution, so that the final concentration of the perchlorate was 10% (v/v). The solution was sufficiently stirred and centrifuged (15,000×g, 15 min) to give the supernatant. The obtained supernatant was subjected to HPLC analysis according to the following conditions.
Then the solution was diluted with equal volume of methanol, sufficiently stirred and centrifuged (15,000×g, 5 min) to give the supernatant. The obtained supernatant was subjected to HPLC analysis according to the following conditions.

[3] = system: other human P450 molecular species
Description: as §5, §6, §7
Then perchlorate was added to the solution, so that the final concentration of the perchlorate was 10% (v/v). The solution was sufficiently stirred and centrifuged (15,000×g, 15 min) to give the supernatant. […]

human P450 2E1 [4] = biological target: T2, human P450 2E1; test: Ames test using yeast S-9 Mix fraction and microsomal fraction, human P450 2E1 as metabolic activation source; format: cell-based
Excerpt: (§2) The toxic effects, in particular mutagenicity, of the resulting metabolites can be determined by a conventional biological analytic method such as the Ames Test. For example, the metabolites present in the reaction solution are allowed to react with mutant bacteria such as histidine requiring Salmonella strain (Salmonella typhimurium (his−)), or tryptophan requiring Escherichia coil (Escherichia coil (trp−)), and then determine whether the metabolites cause the back mutation of the bacteria whether the colonies of revertant which is not requiring the amino acid (His+ or Trp+) are formed, and, if formed, how many colonies. In place of the bacteria, mammalian cells such as MCL-5 cells, which are sensitive to cell toxicity of a chemical compound (U.S. Pat. No. 4,532,204), can be used.
(§3) The Ames test method was in accordance with the customary method described, for example, in Mutat. Res., (1975) 31, 347. 2-Aminoanthrathene which is an arylamine type compound was used as a specimen compound. (1) Rat S-9 Mix supernatant fraction (obtained by homogenizing liver and then subjected to centrifugation (9000×g, 10 min), manufactured by Kikkoman) containing each kind of rat P450 molecular species at the concentration of 1200 pmol per 1 sample and (2) Yeast S-9 Mix fraction obtained from each kind of yeast cells expressing human P450 or a microsomal fraction prepared from the yeast S-9 Mix fraction were used as a metabolic activation source in the Ames test.

[5] = system: human cytochrome P450 3A4; test: Ames test using yeast S-9 Mix fraction and microsomal fraction, human P450 3A4 as metabolic activation source; format: cell-based
Excerpt: as §2
(§4) The Ames test method was in accordance with the customary method described, for example, in Mutat. Res., (1975) 31, 347. 2-Aminoanthrathene which is an arylamine type compound was used as a specimen compound. […]

[6] = biological target: T6, human cytochrome P450 2C8 (Homo sapiens, UniProt P10632); test: Ames test using yeast S-9 Mix fraction and microsomal fraction, human P450 2C8 as metabolic activation source; format: cell-based
T6 construct: The entire protein coding region of the P450 2C8 gene was amplified by the PCR method; made in house; host or cells: Saccharomyces cerevisiae AH22 (whole transformed cells, S-9 Mix or microsomal fractions)
T6 sequence (P10632 1-490): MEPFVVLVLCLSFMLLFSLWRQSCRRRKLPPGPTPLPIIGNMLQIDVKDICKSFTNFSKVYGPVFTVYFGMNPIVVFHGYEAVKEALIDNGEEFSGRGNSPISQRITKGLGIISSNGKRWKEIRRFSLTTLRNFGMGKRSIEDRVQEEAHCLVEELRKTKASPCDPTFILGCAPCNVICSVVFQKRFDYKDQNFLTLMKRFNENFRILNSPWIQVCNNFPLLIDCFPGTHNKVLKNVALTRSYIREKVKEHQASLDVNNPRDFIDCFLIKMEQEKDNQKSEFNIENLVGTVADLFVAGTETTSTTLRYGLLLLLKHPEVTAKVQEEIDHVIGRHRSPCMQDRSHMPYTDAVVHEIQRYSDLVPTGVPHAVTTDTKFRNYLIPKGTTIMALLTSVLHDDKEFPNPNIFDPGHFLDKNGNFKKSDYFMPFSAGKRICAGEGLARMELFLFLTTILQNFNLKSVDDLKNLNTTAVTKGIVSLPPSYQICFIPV
Excerpt: as §2, §4

[7] = system: human cytochrome P450 2A6; test: Ames test using yeast S-9 Mix fraction and microsomal fraction, human P450 2A6 as metabolic activation source; format: cell-based
Excerpt: as §2, §4

human P450 1A2 [8] = biological target: T1, human P450 1A2; test: Ames test using yeast S-9 Mix fraction and microsomal fraction, human P450 1A2 as metabolic activation source; format: cell-based; set-up: made in house; host or cells: Saccharomyces cerevisiae AH22 (whole transformed cells, S-9 Mix or microsomal fractions)
Excerpt: as §2, §3

[9] = Table 1 hydroxylation activity, metabolic activation in Ames test
[10] = compound at 1 μg/plate (90 mm dia.), yeast S-9 Mix fraction and microsomal fraction

SMILES	Hydroxylation activity, human P450 1A2 (human P450 1A2 [1])	Hydroxylation activity, human P450 2C9 (human P450 2C9)	Hydroxylation activity, human P450 2E1 (human P450 2E1 [2])	Hydroxylation activity, human P450 3A4 (human P450 3A4)	Hydroxylation activity, human P450 2A6 (human P450 2A6)	Hydroxylation activity, human P450 2B6 (human P450 2B6)	Hydroxylation activity, human P450 2C8 (human P450 2C8)	Hydroxylation activity, human P450 2C18 (human P450 2C18)	Hydroxylation activity, human P450 2C19 (human P450 2C19)	Hydroxylation activity, human P450 2D6 (human P450 2D6)	Hydroxylation activity, human P450 1A1 (human P450 1A1)	further results
CC(=O)Nc1ccccc1 [Acetanilide]	+ + +	+ +	+ +	+	+ +	+ +	+ +	+ +	+ +	+ + +	+ +	
CCCCNC(=O)NS(=O)(=O)c1ccc(C)cc1 [Tolbutamide]	−		−		−	−	+	+	+ +	−	−	Hydroxylated metabolite / hydroxylation activity with yeast expressing other human P450 than those named ([3]; microsomes): not detected
Nc1ccc2cc3ccccc3cc2c1 [2-Aminoanthracene]												Ames test activity in words, human P450 2E1 (human P450 2E1 [4]): moderate activity; Activity in Table 1 for 2-aminoanthracene (Ames test), human P450 2E1 (human P450 2E1 [4]; [9]): + +; Revertant colonies detected, yeast expressing human P450 2E1 (AH22/p2E1R) (human P450 2E1 [4]; [10]): more than 1000 revertant colonies; Ames test revertant colonies in words, human cytochrome P450 3A4 [5]: not found; Activity in Table 1 for 2-aminoanthracene (Ames test), human P450 3A4 [5, 9]: −; Ames test revertant colonies in words, human cytochrome P450 2C8 [6]: not found; Activity in Table 1 for 2-aminoanthracene (Ames test), human P450 2C8 [6, 9]: −; Ames test revertant colonies in words, human cytochrome P450 2A6 [7]: not found; Activity in Table 1 for 2-aminoanthracene (Ames test), human P450 2A6 [7, 9]: −; Ames test activity in words, human cytochrome P450 1A2 (human P450 1A2 [8]): high activity; Concentration at which mutagenicity can be detected (human P450 1A2 [8]; 20 pmol of P450 1A2 used): about 0.1 μg; Activity in Table 1 for 2-aminoanthracene (Ames test), human P450 1A2 (human P450 1A2 [8]; [9]): + + +; Revertant colonies detected, yeast expressing human P450 1A2 (AH22/p1A2R) (human P450 1A2 [8]; [10]): more than 1000 revertant colonies
O=c1ccc2ccccc2o1 [Coumarin]	−	−	−	−	+ + +	−	−	−	−	−	−	Hydroxylated metabolite / hydroxylation activity with yeast expressing other human P450 than those named [3]: no activity
CCOc1ccc2ccc(=O)oc2c1 [7-Ethoxycoumarin]	+ +	+	+ +	+	+ +	+ + +	+	+	+	+ +	+ + +	

From US6620593B1, “Method for safety evaluation of chemical compound using recombinant yeast expressing human cytochrome P450” (Sumitomo Chemical Company, Limited, priority 1993, dated 2003)
